Data reported in ChEMBL document CHEMBL1955855, “A domino Knoevenagel hetero-Diels-Alder reaction for the synthesis of polycyclic chromene derivatives and evaluation of their cytotoxicity” (Bioorg Med Chem Lett, 2012).

What was measured:
B16 = experiment: Cytotoxicity against mouse B16 cells after 72 hrs by MTT assay; format: functional, cell-based
A549 = experiment: Cytotoxicity against human A549 cells after 72 hrs by MTT assay; format: functional, cell-based
[1] = Mus musculus, B16, 72 h, read-out: IC50
[2] = Homo sapiens, A549, 72 h, read-out: IC50

| Structure (SMILES) | IC50 (B16; [1]) [µM] | IC50 (A549; [2]) [µM] | IC50 (B16; b16) | IC50 (A549; a549) |
| --- | --- | --- | --- | --- |
| CC1(C)Oc2c(c(=O)oc3ccccc23)[C@H]2C3=Cc4ccccc4O[C@@]3(C)CC[C@H]21 (relative stereo) | 35.7 | 9.58 | – | – |
| CC1(C)CC(=O)C2=C(C1)OC(C)(C)[C@@H]1CC[C@]3(C)Oc4ccccc4C=C3[C@H]21 (relative stereo) | 10.2 | 8.64 | – | – |
| CC1(C)OC2=C(C(=O)c3ccccc32)[C@H]2C3=Cc4cc(Cl)ccc4O[C@@]3(C)CC[C@H]21 | – | 26.3 | Not Active | – |
| Cn1c2c(c(=O)n(C)c1=O)[C@H]1C3=Cc4cc(Cl)ccc4O[C@@]3(C)CC[C@H]1C(C)(C)O2 (relative stereo) | 7.69 | – | – | Not Active |
| CC1(C)OC2=C(C(=O)CCC2)[C@H]2C3=Cc4ccccc4O[C@@]3(C)CC[C@H]21 (relative stereo) | 12.8 | 20.8 | – | – |
| CC1(C)OC2=C(C(=O)CCC2)[C@H]2C3=Cc4cc(Br)ccc4O[C@@]3(C)CC[C@H]21 (relative stereo) | 16.5 | 19.7 | – | – |
| COc1cccc2c1C(=O)c1c(O)c3c(c(O)c1C2=O)C[C@@](O)(C(=O)CO)C[C@@H]3O[C@H]1C[C@H](N)[C@H](O)[C@H](C)O1 [DOXORUBICIN] | < 0.1 | < 0.1 | – | – |
| CC1(C)Oc2c(c(=O)oc3ccccc23)[C@H]2C3=Cc4cc(Cl)ccc4O[C@@]3(C)CC[C@H]21 (relative stereo) | 20.4 | 0.26 | – | – |
| CC1(C)OC2=C(C(=O)CCC2)[C@H]2C3=Cc4cc(Cl)ccc4O[C@@]3(C)CC[C@H]21 (relative stereo) | 2 | 4.01 | – | – |
| CC1(C)CC(=O)C2=C(C1)OC(C)(C)[C@@H]1CC[C@]3(C)Oc4ccc(Br)cc4C=C3[C@H]21 (relative stereo) | 12.5 | 6.13 | – | – |
| Cn1c2c(c(=O)n(C)c1=O)[C@H]1C3=Cc4ccccc4O[C@@]3(C)CC[C@H]1C(C)(C)O2 (relative stereo) | 8.47 | 3.8 | – | – |
